Data reported in article PMC11284790, “Targeting Myeloperoxidase Ameliorates Gouty Arthritis: A Virtual Screening Success Story” (Journal of Medicinal Chemistry, 2024).

Experiments:
[1] = biological target: Human leukocyte MPO (Homo sapiens, UniProt P05164); assay: Oxidation of the compounds by MPO/H2O2 (intrinsic fluorescence decay); format: biochemical; design: Human leukocyte MPO (EC 1.7.1.11) was purchased from Planta Natural Products; purchased Planta Natural Products (Vienna, Austria); host or cells: human leukocytes; details: 1 μM compound; for compound oxidation by MPO/H2O2 in the presence of chloride (fluorescence) / compound oxidation by MPO/H2O2 in the absence of chloride (fluorescence): 10 nM MPO; for compound oxidation by MPO/H2O2 in the presence of chloride (fluorescence): 40 μM H2O2, 140 mM NaCl; for compound oxidation by MPO/H2O2 in the absence of chloride (fluorescence): 40 μM H2O2, no chloride
Procedure: Changes in the absorption and fluorescence spectra of RL6 and RL7 were determined by incubating 1 μM compounds in 0.3% DMSO and phosphate buffer (20 mM, pH 7.4) with or without MPO (10 nM), diethylenetriaminepentaacetic acid (100 μM), taurine (5 mM), cetyltrimethylammonium chloride (0.03%), and NaCl (140 mM). In the chloride-free system, NaCl and taurine were omitted, and cetyltrimethylammonium chloride was replaced by cetyltrimethylammonium bisulfate. The reaction was performed in the absence or presence of Tyr (50 μM) and was started by adding 40 μM hydrogen peroxide. RL6 and RL7 consumption was monitored by fluorescence at λex = 413/λem = 603 nm for RL6 or λex = 306/λem = 603 nm for RL7 in a microplate reader.

[2] = tested on: MSU-induced paw edema; assay: MSU-induced paw edema, intraperitoneal treatment; format: in vivo; details: for effect on paw edema over time: i.p. 30 min before MSU, mefenamic acid 30 mg/kg, RL6 3, 10, 30, RL7 0.3, 3, 30, ZINC9089086 3, 10, 30 mg/kg, 6 h
Procedure: MSU-induced edema was performed as previously described.[22] The compounds were prepared by dilution in a solution containing 0.5% Tween 80 and 5% DMSO and then resuspended in PBS prior to administration. The animals were treated intraperitoneally (i.p.) with the following substances: vehicle (VEH: 5% DMSO; 0.5% Tween 80 in PBS), mefenamic acid (a nonsteroidal anti-inflammatory drug at a dosage of 30 mg/kg), RL6 (at doses of 3, 10, and 30 mg/kg), RL7 (at doses of 0.3, 3, and 30 mg/kg), or ZINC9089086 (at doses of 3, 10, and 30 mg/kg).[31] After 30 min, the mice were anesthetized using inhaled isoflurane (2% v/v in O2). A hypodermic syringe with a 31-gauge needle (BD, Franklin Lakes, NJ, USA) was used to administer the vehicle (VEH: PBS, 30 μL) or MSU (1.5 mg/30 μL) via the intraplantar route (i.pl.), into the right hind paw (Figure 9).
Paw volume (mL) was measured at various time points, including before injection (baseline, B), […] 1, 2, 3, 4, 5, and 6 h following MSU injection using a plethysmometer (Ugo Basile, Comerio, Italy) (Figure 7). For this, the injected hind paw was immersed into the dipping solution (6 mM NaCl diluted in distilled water and added with 2 mL/L of a wetting compound provided by the manufacturer) until the ankle. The extent of edema was quantified as a change in paw volume (Δ mL) by subtracting the basal paw volume from the volume of the paw measured at each time point. To evaluate the antiedematogenic effect of orally administered MPO inhibitors (p.o.), the animals were fasted for 1 h and then treated with equimolar doses of the following substances: vehicle (VEH: 5% DMSO; 0.5% tween 80 in PBS), mefenamic acid (30 mg/kg), RL 6 (33 mg/kg), RL 7 (54 mg/kg), RL 21 (30 mg/kg), or ZINC9089086 (34 mg/kg). After 1 h, the anesthetized mice (2% isoflurane, v/v in O2) received either the vehicle (PBS, 30 μL, i.pl.) or 1.5 mg/30 μL MSU (i.pl.). The paw volume was evaluated at the same time points as previously described. The percentage of edema inhibition by the compounds was calculated discounting the paw volume of mice that received oral or intraperitoneal vehicle and PBS intraplantar (VEH + VEH).

[3] = tested on: IL-6; assay: Paw tissue IL-6 level after MSU (ELISA); format: in vivo, male C57BL/6 mice; details: intraperitoneal pretreatment (RL6 30 mg/kg), tissue collected at 6 h
Procedure: The remaining part of the homogenate was treated with a solution of protease/phosphatase inhibitors (1 mM phenylmethylsulfonyl fluoride, 10 μg/mL leupeptin, and 10 μg/mL trypsin inhibitor) and centrifuged at 10,000g (10 min at 4 °C). The obtained supernatants were subjected to 1:2 dilution in PBS and subsequently used for the assessment of IL-1β and IL-6 using murine enzyme-linked immunosorbent assay kits, specifically a sandwich ELISA technique, following manufacturer’s instructions (BioLegend, CA, USA). The protein content within the samples was determined by using the Bradford method (1976). The results were quantified and expressed in pg/mg of protein (Bio-Rad, Hercules, CA, USA).[76]

[4] = tested on: total peroxidase activity; assay: Paw tissue total peroxidase activity after MSU; format: in vivo, male C57BL/6 mice; details: intraperitoneal pretreatment (RL6 30 mg/kg), tissue collected at 6 h
Procedure: After the assessment of paw edema was completed, the mice were immediately anesthetized by inhalation of 2% isoflurane mixture in oxygen (O2). Subsequently, the surface of the hind paws was collected for the measurement of total peroxidase activity, IL-6, and IL-1β. These tissue samples were then frozen using dry ice and stored at −80 °C until further analysis. The frozen tissues were later pulverized into a fine powder using liquid nitrogen and homogenized in a phosphate buffer (100 mM, pH 7.4). For the analysis of total peroxidase activity, a portion of this homogenate was mixed with hexadecyltrimethylammonium (1% HTAB, pH 6.0), vigorously vortexed, and sonicated. The resulting mixture was then centrifuged at 10,000g for 10 min, at 4 °C, and heated at 60 °C for 2 h. The sample of each supernatant was incubated with a solution containing 50 mM phosphate buffer, 0.164 mg/mL of o-dianisidine dihydrochloride, and H2O2 (0.0005%, pH 6.0). […] Each unit represents the capacity to degrade 1 μmol of H2O2 per minute.[81]

Human leukocyte MPO, sequence (P05164 279-745 limits assumed): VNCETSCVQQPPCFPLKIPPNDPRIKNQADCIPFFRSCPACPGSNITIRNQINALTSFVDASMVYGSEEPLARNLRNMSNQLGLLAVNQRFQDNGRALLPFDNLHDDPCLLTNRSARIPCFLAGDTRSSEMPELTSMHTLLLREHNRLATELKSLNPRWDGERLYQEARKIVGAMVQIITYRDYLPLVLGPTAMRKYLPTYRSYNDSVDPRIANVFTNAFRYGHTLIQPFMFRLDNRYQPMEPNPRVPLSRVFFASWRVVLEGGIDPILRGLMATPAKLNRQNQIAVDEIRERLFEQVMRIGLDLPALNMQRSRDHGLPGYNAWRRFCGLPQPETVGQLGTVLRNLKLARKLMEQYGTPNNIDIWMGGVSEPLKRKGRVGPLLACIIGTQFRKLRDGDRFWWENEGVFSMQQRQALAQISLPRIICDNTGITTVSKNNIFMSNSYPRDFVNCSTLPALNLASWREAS
Human leukocyte MPO, sequence (P05164 165-278 limits assumed): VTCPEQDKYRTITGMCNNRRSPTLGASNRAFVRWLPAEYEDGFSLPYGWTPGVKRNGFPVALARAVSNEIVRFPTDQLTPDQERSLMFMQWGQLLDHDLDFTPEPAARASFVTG

## Nc1cc2c3c(cccc3c1)C(=O)N(N)C2=O [RL6]
[1]
  compound oxidation by MPO/H2O2 in the presence of chloride (fluorescence): did not undergo any alteration
  compound oxidation by MPO/H2O2 in the absence of chloride (fluorescence): did not undergo any alteration
[1]; 50 μM tyrosine
  compound oxidation by MPO/H2O2 in the presence of tyrosine (fluorescence): No oxidation occurred
[2]; 10 mg/kg i.p.
  reduction of paw edema (time-dependent AUC) vs VEH + MSU: 80.4%
[2]; 30 mg/kg i.p.
  reduction of paw edema (time-dependent AUC) vs VEH + MSU: 83.2%
[2]; during the in vivo tests
  acute toxicity observed in mice: no sign of acute toxicity
[2]
  effect on paw edema over time: significantly prevented paw edema
[3]
  effect on IL-6 levels in hind paw tissue: no significant impact
[4]
  reduction in total peroxidase activity in hind paw tissue: 61.5%

## CN1CCc2nc3sc(C(=O)Nc4cccc(C#N)c4)c(N)c3cc2C1 [RL7]
[1]
  compound oxidation by MPO/H2O2 in the presence of chloride (fluorescence): further consumed in the full reaction system in the presence of chloride
  compound oxidation by MPO/H2O2 in the absence of chloride (fluorescence): not further enhanced by hydrogen peroxide/MPO
[2]; 3 mg/kg i.p.
  reduction of paw edema (time-dependent AUC) vs VEH + MSU: 82.8%
[2]; 30 mg/kg i.p.
  reduction of paw edema (time-dependent AUC) vs VEH + MSU: 90.2%
[2]
  effect on paw edema over time: inhibited paw edema at all of the tested doses
[3]
  effect on IL-6 levels in hind paw tissue: unable to decrease
[4]
  reduction in total peroxidase activity in hind paw tissue: unable to decrease
